# In the supplement of paper PMC10307832:
# Compound: CN1CCC(CC1)OC2=CC(=C(C=C2)NC3=NC=C4C(=N3)N(C(=O)N4C)C5CCCC5)OC [AZ3146] + O=C(c1cc(Cc2n[nH]c(=O)c3ccccc23)ccc1F)N1CCN(C(=O)C2CC2)CC1 [Olaparib] (partner 8 µM)
# Experiment: relative viability (nuclei count vs DMSO), 5 days (fraction); higher = more cells survive
# Conditions: first compound 8 µM
# Procedure, shortened: (§1)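 Dosing by pin tool came one day after lung cancer cell lines were seeded in 1536-well plates, using either one drug or a fixed anchor-drug dose plus five library-drug doses (not always all listed) in √10 steps. After 5 days, nuclei were counted on 4× images. Relative viability is treated-well nuclei count divided by vehicle-well nuclei count, and values are medians of duplicate plates.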
row,Cell Line,relative viability
1,NCI-H1648,0.802
2,HOP-62,0.359
3,NCI-H460,0.352
4,LU99A,0.257
5,NCI-H2085,0.711
6,A-427,0.652
7,NCI-H520,0.289
8,NCI-H838,0.253
9,NCI-H1792,0.434
10,NCI-H596,0.765
11,NCI-H3122,0.645
12,BEN,0.917
13,NCI-H1395,0.552
14,201T,0.805
15,NCI-H1993,1.06
16,IA-LM,0.486
17,NCI-H1355,0.807
18,NCI-H2405,0.818
19,NCI-H1703,0.402

# Compound: CN1CCC(CC1)OC2=CC(=C(C=C2)NC3=NC=C4C(=N3)N(C(=O)N4C)C5CCCC5)OC [AZ3146] + CC(=O)c1c(C)c2cnc(Nc3ccc(N4CCNCC4)cn3)nc2n(C2CCCC2)c1=O [Palbociclib] (partner 0.5 µM)
# Experiment: as above
# Conditions: first compound 0.08 µM
# Procedure, shortened: as §1
row,Cell Line,relative viability
1,NCI-H522,1.15
2,PC-14,0.524
3,NCI-H1666,0.586
4,EKVX,0.406
5,NCI-H1755,0.414
6,NCI-H2023,0.347
7,HCC-78,0.486
8,SK-LU-1,0.375
9,PC-3 [JPC-3],0.505
10,LOU-NH91,0.513
11,NCI-H647,0.356
12,NCI-H23,0.503
13,EPLC-272H,0.327
14,NCI-H2126,0.336
15,ChaGo-K-1,0.935
16,HCC-44,0.966
17,NCI-H1734,0.308
18,NCI-H650,0.303
19,NCI-H2228,0.671
20,NCI-H2342,0.527
21,NCI-H1944,0.302
22,HARA,0.274
23,COR-L23,0.244

row,Cell Line,relative viability
1,LCLC-103H,0.415
2,LXF-289,0.574
3,NCI-H358,0.141
4,NCI-H322M,0.475
5,LC-2-ad,0.419
6,HCC-827,0.544
7,SW 900,0.447
8,CAL-12T,0.391
9,HCC-15,0.757
10,HOP-62,0.357
11,NCI-H460,0.088
12,NCI-H2085,0.489
13,A-427,0.482
14,NCI-H520,0.237
15,NCI-H838,0.219
16,NCI-H1792,0.507
17,NCI-H3122,0.179
18,NCI-H1395,0.619
19,201T,0.327
20,NCI-H1993,0.721
21,NCI-H1355,0.396
22,NCI-H2405,0.516

# Same assay, conditions: first compound 0.253 µM
row,Cell Line,relative viability
1,NCI-H522,0.902
2,PC-14,0.606
3,NCI-H1666,0.659
4,EKVX,0.373
5,NCI-H1755,0.427
6,NCI-H2023,0.343
7,HCC-78,0.483
8,SK-LU-1,0.365
9,LOU-NH91,0.582
10,NCI-H647,0.364
11,NCI-H23,0.515
12,EPLC-272H,0.342
13,NCI-H2126,0.33
14,ChaGo-K-1,0.927
15,HCC-44,0.977
16,NCI-H1734,0.376
17,NCI-H650,0.343
18,NCI-H2228,0.878
19,NCI-H2342,0.502
20,NCI-H1944,0.322
21,HARA,0.239
22,COR-L23,0.351
23,LCLC-103H,0.458

row,Cell Line,relative viability
1,LXF-289,0.603
2,NCI-H358,0.139
3,NCI-H322M,0.465
4,LC-2-ad,0.546
5,HCC-827,0.471
6,CAL-12T,0.502
7,HCC-15,0.668
8,HOP-62,0.5
9,NCI-H460,0.139
10,LU99A,0.464
11,NCI-H2085,0.472
12,A-427,0.521
13,NCI-H520,0.216
14,NCI-H838,0.202
15,NCI-H1792,0.664
16,NCI-H3122,0.19
17,BEN,0.47
18,NCI-H1395,0.603
19,201T,0.359
20,NCI-H1993,0.71
21,NCI-H1355,0.402
22,NCI-H2405,0.546

# Same assay, conditions: first compound 0.8 µM
row,Cell Line,relative viability
1,NCI-H522,1.14
2,PC-14,0.518
3,NCI-H1666,0.672
4,EKVX,0.284
5,NCI-H1755,0.434
6,NCI-H2023,0.364
7,HCC-78,0.414
8,SK-LU-1,0.355
9,PC-3 [JPC-3],0.47
10,LOU-NH91,0.512
11,NCI-H647,0.357
12,NCI-H23,0.494
13,EPLC-272H,0.309
14,NCI-H2126,0.375
15,ChaGo-K-1,0.894
16,HCC-44,1.05
17,NCI-H1734,0.387
18,NCI-H650,0.234
19,LK-2,0.633
20,NCI-H2228,0.728
21,NCI-H2342,0.582
22,NCI-H1944,0.298
23,HARA,0.266
24,COR-L23,0.328

row,Cell Line,relative viability
1,LCLC-103H,0.495
2,LXF-289,0.564
3,NCI-H358,0.123
4,NCI-H322M,0.461
5,LC-2-ad,0.475
6,HCC-827,0.467
7,SW 900,0.502
8,CAL-12T,0.45
9,HCC-15,0.727
10,NCI-H1648,0.27
11,HOP-62,0.438
12,NCI-H460,0.139
13,LU99A,0.428
14,NCI-H2085,0.475
15,A-427,0.497
16,NCI-H520,0.22
17,NCI-H838,0.205
18,NCI-H3122,0.228
19,BEN,0.511
20,201T,0.382
21,NCI-H1993,0.579
22,NCI-H1355,0.405
23,NCI-H2405,0.504

# Same assay, conditions: first compound 2.53 µM
row,Cell Line,relative viability
1,NCI-H522,0.894
2,PC-14,0.571
3,NCI-H1666,0.663
4,EKVX,0.431
5,NCI-H1755,0.479
6,NCI-H2023,0.311
7,HCC-78,0.54
8,SK-LU-1,0.404
9,PC-3 [JPC-3],0.555
10,LOU-NH91,0.539
11,NCI-H647,0.346
12,NCI-H23,0.513
13,EPLC-272H,0.338
14,NCI-H2126,0.333
15,ChaGo-K-1,0.896
16,HCC-44,0.959
17,NCI-H1734,0.3
18,NCI-H650,0.363
19,LK-2,0.591
20,NCI-H2228,0.622
21,NCI-H2342,0.565
22,NCI-H1944,0.39
23,HARA,0.241
24,COR-L23,0.321
25,LCLC-103H,0.446

row,Cell Line,relative viability
1,LXF-289,0.595
2,NCI-H358,0.135
3,NCI-H322M,0.518
4,LC-2-ad,0.455
5,HCC-827,0.421
6,SW 900,0.489
7,CAL-12T,0.523
8,HCC-15,0.738
9,NCI-H1648,0.298
10,HOP-62,0.436
11,NCI-H460,0.161
12,LU99A,0.377
13,NCI-H2085,0.497
14,A-427,0.493
15,NCI-H520,0.237
16,NCI-H838,0.239
17,NCI-H1792,0.679
18,NCI-H3122,0.23
19,BEN,0.479
20,NCI-H1395,0.619
21,201T,0.348
22,NCI-H1993,0.639
23,NCI-H1355,0.406
24,NCI-H2405,0.505

# Same assay, conditions: first compound 8 µM
row,Cell Line,relative viability
1,NCI-H522,1.1
2,PC-14,0.0919
3,NCI-H1666,0.656
4,EKVX,0.368
5,NCI-H1755,0.431
6,NCI-H2023,0.255
7,HCC-78,0.425
8,SK-LU-1,0.386
9,PC-3 [JPC-3],0.482
10,LOU-NH91,0.537
11,NCI-H647,0.367
12,NCI-H23,0.473
13,EPLC-272H,0.27
14,NCI-H2126,0.339
15,ChaGo-K-1,0.862
16,HCC-44,0.935
17,NCI-H1734,0.317
18,NCI-H650,0.27
19,LK-2,0.71
20,NCI-H2228,0.59
21,NCI-H2342,0.501
22,NCI-H1944,0.326
23,HARA,0.243
24,COR-L23,0.278
25,LCLC-103H,0.444

row,Cell Line,relative viability
1,LXF-289,0.579
2,NCI-H358,0.101
3,NCI-H322M,0.471
4,LC-2-ad,0.453
5,HCC-827,0.516
6,SW 900,0.589
7,CAL-12T,0.229
8,HCC-15,0.68
9,NCI-H1648,0.232
10,HOP-62,0.447
11,NCI-H460,0.0649
12,LU99A,0.455
13,NCI-H2085,0.432
14,A-427,0.463
15,NCI-H520,0.195
16,NCI-H838,0.161
17,NCI-H1792,0.669
18,NCI-H3122,0.19
19,BEN,0.471
20,NCI-H1395,0.647
21,201T,0.347
22,NCI-H1993,0.762
23,NCI-H1355,0.388
24,NCI-H2405,0.508
